In US8119589B2, “Modulation of CD4+ T cell responses by a tick saliva protein, Salp15 and polypeptides derived therefrom” (University of North Carolina at Charlotte, priority 2004, dated 2012):
Where a SMILES comes first, the peptide text is derived from it.

How the values were obtained:
[1] = test system: CD4+ T cells; assay: Lipid raft redistribution (CTB594 staining, receptor capping) in activated CD4+ T cells; format: cell-based, mouse; details: pretreatment with peptide 0.2 μg/mL; anti-CD3/CD28 20 min
Method: (§1) Naïve CD4+ T cells from C3H/HeN, Balb/c, and B10.BR mice were purified as previously described (Anguita et al., 2002). CD4+ T cells were preincubated in Click's modified Bruff's Medium (Sigma Chemical Co., St. Louis, Mo., U.S.A.) for 10 minutes at 37° C. with and without Salp15 (50 μg/mL) and stimulated for 20 min or the indicated times at 37° C. with 10 μg/mL of anti-CD3ε, 1 μg/mL of anti-CD28, and 10 μg/mL of anti-armenian and syrian hamster IgG (BD Biosciences Pharmingen, San Jose, Calif., U.S.A.). Jurkat (E6-1) cells were stimulated using 5 μg/mL of OKT3 mAb (eBioscience, San Diego, Calif., U.S.A.) and 1 μg/mL of anti-human CD28 cross linked with 5 μg/mL anti-mouse IgG for the indicated times.
For the visualization of lipid rafts, phospho-tyrosine, and cytoskeleton reorganization, CD4^+, CD8^+ or Jurkat cells were cytospun for 10 minutes at 1000 RPM onto positively charged microslides (Fisher Scientific, Hampton, N.H., U.S.A.). The cells were fixed with 3.7% paraformaldehyde (Sigma Chemical Co.) for 15 minutes and stained with CTB594 (Molecular Probes, Eugene, Oreg., U.S.A.), AlexaFluor488 labeled phalloidin (Molecular Probes) or (1:50) biotin-conjugated anti-p-Tyr (PY99) followed by Streptavidin-AlexaFluor594 (1:100, Molecular Probes). For p-LAT and p-PLCγ1 staining, fixed cells were treated with PBS containing 0.1% Triton-X 100 and 100 mM glycine for 15 min at room temperature and stained using rabbit p-LAT (Tyr^191) or rabbit anti-p-PLCγ1 (Tyr^783) probed with anti-rabbit IgG488 (Molecular Probes).
For receptor capping studies, mouse primary B and CD11^+ cells were purified by positive selection using biotin anti-mouse CD45R/B220 clone RA3-6B2 and biotin anti-mouse CD11b clone M1/70 (BD Biosciences Pharmingen) respectively, followed by incubation with magnetic microbeads. The cells were analyzed for receptor capping using 25 μg/mL anti-mouse IgM and 25 μg/mL anti-mouse CD16/CD32 respectively, cross-linked with 25 μg/mL of anti-rat IgG594 for 10 min in the presence or absence of 50 μg/mL of Salp15. […]

[2] = target: T1, sCD4 (Homo sapiens, UniProt P01730); assay: Microtiter binding of sCD4-HRP to plate-bound Salp15 and synthetic peptides
T1 construct: the extracellular four domains of CD4 (sCD4); purchased Research Diagnostics Inc., Flanders, N.J., U.S.A
Method: Purified sCD4 was coated overnight at 4° C. at the indicated concentrations in 0.1M sodium carbonate buffer (pH 9.5) in 96 well plates. Equimolar amounts of lysozyme were used as a non-specific control. The wells were washed, blocked with 10% FCS/PBS for 1 hr at R.T., and incubated with Salp15 (0.4 μM) for 2 hr at 37° C. Salp15 binding was detected by incubation with horseradish peroxidase (HRP)-conjugated anti-His antibody for 1 hr followed by microwell peroxidase substrate (KPL). The reaction was stopped by adding TMB stop solution (KPL). Chemically synthesized overlapping peptides of Salp15 were purchased from GenScript Corporation (Piscataway, N.J., U.S.A). To study the binding of Salp15 and peptides to sCD4, Salp15 (5 μg) and different peptides (0.5 μg) were coated. The wells were washed and blocked prior to incubation with sCD4-HRP (Research Diagnostics Inc., Flanders, N.J., U.S.A.). For competition assays, indicated concentrations of Salp15 or P11 were added to sCD4-HRP and incubated with plate bound P11 (0.1 μg). To estimate the effect of dithiothreitol (DTT) treatment of Salp15 on binding to sCD4, 0.5 μM Salp15 was treated with 10 mM DTT overnight and immobilized onto microtiter plate followed by blocking and incubation with sCD4-HRP.
Dissociation constants were determined by non-linear curve fit. The results are expressed as the mean±S.E. of 3 to 5 individual experiments.

[3] = test system: CD4+ T cells; assay: IL-2 production (capture ELISA) by CD4+ T cells activated with plate bound anti-CD3 and soluble anti-CD28; format: cell-based, mouse; details: for Inhibition of CD4+ T cell IL-2 production: pretreatment with peptide, 24 hr of activation
Method: FIG. 6D is a graph showing purified CD4^+ T cells were activated in vitro with plate bound anti-CD3 and soluble anti-CD28 in the absence or presence of Salp15 (50 μg/mL), P11, or P8. The supernatants were analyzed at 24 hr of activation for IL-2 levels by capture ELISA.
as §1

In the case of `CC[C@H](C)[C@H](NC(=O)[C@H](Cc1c[nH]cn1)NC(=O)CNC(=O)[C@@H](NC(=O)[C@H](CS)NC(=O)[C@H](CCCCN)NC(=O)[C@H](CC(N)=O)NC(=O)[C@H](CCCCN)NC(=O)[C@H](CCC(=O)O)NC(=O)[C@H](C)NC(=O)[C@H](CS)NC(=O)[C@@H](NC(=O)[C@H](CCC(N)=O)NC(=O)CNC(=O)[C@H](CC(N)=O)NC(=O)[C@@H]1CCCN1C(=O)CN)[C@@H](C)O)C(C)C)C(=O)N1CCC[C@H]1C(=O)NCC(=O)N[C@@H](CS)C(=O)O` [Peptide P11] (H-GPNGQTCAEKNKCVGHIPGC-OH; N-terminus and C-terminus assumed), the “Lipid rafts clustering in response to T cell activation” value [1] is reported as “reduction”, the “Binding of overlapping synthetic peptides to sCD4” value ([2]; peptides 0.5 μg coated, sCD4-HRP) is reported as “showed binding” and the “Activity for modulating naïve CD4+ T cell activation among the tested polypeptide fragments” value [3] is reported as “highest activity”. For the same compound, the “Inhibition of CD4+ T cell IL-2 production” value [3] was “dose dependent inhibition”.
“EKNKCVGHIPGC (listed as Ixodes scapularis) [Peptide P11-2]” was tested, and the “Saturable binding to sCD4 with increasing concentrations” value [2] was “saturable binding” and the “Activity for modulating naïve CD4+ T cell activation among the tested polypeptide fragments” value [3] was “highest activity”.
In the case of “NCTFLCKHGNDVNVTLNLPE (listed as Ixodes scapularis) [Peptide P8]”, the “Lipid rafts clustering in response to T cell activation” value [1] is reported as “did not show any effect”, the “Saturable binding to sCD4 with increasing concentrations” value [2] is reported as “no binding” and the “Inhibition of CD4+ T cell IL-2 production” value [3] is reported as “did not exert any inhibition”.
